The record followed here is the supplement of paper PMC10307832.

Holding throughout (assay): relative viability (nuclei count vs DMSO), 5 days (fraction); higher = more cells survive
Compound in assay [1]: C1CN(CCN1)C2=CC=C(C=C2)C3=CN4C(=C(C=N4)C5=CC=NC6=CC=CC=C56)N=C3 [DM3189]
In a few lines: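 A plate was accepted only when its control CV was below 25% and the cells had doubled at least once. Viability is defined from nuclear counts as treated wells divided by vehicle wells, with the median taken across plates. That median covers lung cancer cell lines grown in 1536-well plates, dosed by pinning at five √10-spaced library-drug concentrations, and counted in MetaXpress from 4× Hoechst images after 5 days.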

Compound in assay [2]: C1CN(CCN1)C2=CC=C(C=C2)C3=CN4C(=C(C=N4)C5=CC=NC6=CC=CC=C56)N=C3 [DM3189] + NC(=O)Nc1cc(-c2cccc(F)c2)sc1C(=O)N[C@H]1CCCNC1 [AZD7762] (partner 0.2 µM)
In a few lines: (§1)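 Lung cancer cell lines, seeded in 1536-well plates, were treated the following day by pin tool with a single drug or with five library-drug doses (not always all listed) in √10 steps on top of a fixed anchor-drug dose. Cells were fixed and nuclei stained in one step after 5 days, and nuclei were counted. Relative viability is the nuclei count for treated wells divided by that for vehicle wells, reported as medians of duplicate plates.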

Compound in assay [3]: C1CN(CCN1)C2=CC=C(C=C2)C3=CN4C(=C(C=N4)C5=CC=NC6=CC=CC=C56)N=C3 [DM3189] + O=C(CCCCCCC(=O)Nc1ccccc1)NO [Vorinostat] (partner 1 µM)
In a few lines:
as §1

Compound in assay [4]: C1CN(CCN1)C2=CC=C(C=C2)C3=CN4C(=C(C=N4)C5=CC=NC6=CC=CC=C56)N=C3 [DM3189] + CC(=O)Nc1cccc(-n2c(=O)n(C3CC3)c(=O)c3c(Nc4ccc(I)cc4F)n(C)c(=O)c(C)c32)c1 [Trametinib] (partner 0.02 µM)
The method in brief:
as §1

Compound in assay [5]: C1CN(CCN1)C2=CC=C(C=C2)C3=CN4C(=C(C=N4)C5=CC=NC6=CC=CC=C56)N=C3 [DM3189] + CS(=O)(=O)CCNCc1ccc(-c2ccc3ncnc(Nc4ccc(OCc5cccc(F)c5)c(Cl)c4)c3c2)o1 [Lapatinib] (partner 2 µM)
In a few lines:
as §1

For SW 900, the relative viability in assay [1] (0.08 µM) was 1.06; in assay [1] (0.253 µM), 0.694; in assay [1] (0.8 µM) it was 0.882; in assay [1] (2.53 µM), 0.887; in assay [2] (first compound 0.08 µM) it was 0.574; in assay [2] (first compound 0.8 µM), 0.515. For the same cell line, the relative viability was 0.645 in assay [2] (first compound 2.53 µM); 0.469 in assay [3] (first compound 0.08 µM); 0.442 in assay [3] (first compound 0.8 µM); 0.383 in assay [3] (first compound 2.53 µM); 0.818 in assay [4] (first compound 0.08 µM); 0.832 in assay [4] (first compound 0.8 µM). Further, the relative viability in assay [4] (first compound 2.53 µM) was found to be 0.941.

For NCI-H522, the relative viability worked out at 1.27 in assay [1] (0.08 µM); 0.891 in assay [1] (0.253 µM); 0.882 in assay [1] (0.8 µM); 0.886 in assay [1] (2.53 µM); 0.949 in assay [2] (first compound 0.08 µM); 0.775 in assay [2] (first compound 0.253 µM). Moreover, the relative viability in assay [2] (first compound 0.8 µM) was found to be 0.648; in assay [2] (first compound 2.53 µM), 0.704; in assay [3] (first compound 0.08 µM), 1.1; in assay [3] (first compound 0.253 µM) it was 0.832; in assay [3] (first compound 0.8 µM), 0.855; in assay [3] (first compound 2.53 µM) it was 0.988. The relative viability turned out to be 0.777 in assay [4] (first compound 0.08 µM), 0.777 in assay [4] (first compound 0.253 µM), 0.656 in assay [4] (first compound 0.8 µM) and 0.747 in assay [4] (first compound 2.53 µM).

Consider NCI-H661, for which the relative viability in assay [1] (0.08 µM) was 1.04; in assay [1] (0.253 µM) it was 0.949; in assay [1] (0.8 µM) it was 1.02; in assay [1] (2.53 µM), 1.11; in assay [5] (first compound 0.08 µM), 0.564; in assay [5] (first compound 0.253 µM), 0.579. The relative viability in assay [5] (first compound 0.8 µM) came out at 0.53; in assay [5] (first compound 2.53 µM) it was 0.614; in assay [3] (first compound 0.08 µM), 0.826; in assay [3] (first compound 0.253 µM), 0.796; in assay [3] (first compound 0.8 µM), 0.809; in assay [3] (first compound 2.53 µM), 0.883. In addition, the relative viability in assay [4] (first compound 0.08 µM) stood at 0.7; in assay [4] (first compound 0.253 µM) it was 0.581; in assay [4] (first compound 0.8 µM) it was 0.642; in assay [4] (first compound 2.53 µM), 0.623.

On to NCI-H2228, for which the relative viability in assay [1] (0.08 µM) turned out to be 1.18; in assay [1] (0.253 µM) it was 1.1; in assay [1] (0.8 µM) it was 0.811; in assay [1] (2.53 µM) it was 0.447; in assay [5] (first compound 0.08 µM), 1.51; in assay [5] (first compound 0.253 µM), 1.08. In addition, the relative viability in assay [5] (first compound 0.8 µM) was 0.865; in assay [5] (first compound 2.53 µM) it was 0.263; in assay [3] (first compound 0.08 µM), 0.541; in assay [3] (first compound 0.253 µM), 0.773; in assay [3] (first compound 0.8 µM) it was 0.593; in assay [3] (first compound 2.53 µM), 0.279. In addition, the relative viability in assay [4] (first compound 0.08 µM) is 0.476; in assay [4] (first compound 0.253 µM) it was 0.494; in assay [4] (first compound 0.8 µM) it was 0.581; in assay [4] (first compound 2.53 µM), 0.236.

SK-LU-1: the relative viability is 1.03 in assay [1] (0.08 µM); 0.793 in assay [1] (0.253 µM); 0.814 in assay [1] (0.8 µM); 0.749 in assay [1] (2.53 µM); 0.864 in assay [5] (first compound 0.08 µM); 0.718 in assay [5] (first compound 0.253 µM). Further, the relative viability in assay [5] (first compound 0.8 µM) turned out to be 0.583; in assay [5] (first compound 2.53 µM) it was 0.459; in assay [3] (first compound 0.08 µM), 0.742; in assay [3] (first compound 0.253 µM), 0.749; in assay [3] (first compound 0.8 µM), 0.728; in assay [3] (first compound 2.53 µM), 0.598. Also, the relative viability was determined as 0.441 in assay [4] (first compound 0.08 µM), 0.402 in assay [4] (first compound 0.253 µM), 0.429 in assay [4] (first compound 0.8 µM) and 0.378 in assay [4] (first compound 2.53 µM).

NCI-H1792: the relative viability in assay [1] (0.08 µM) is 1.27; in assay [1] (0.253 µM) it was 1; in assay [1] (0.8 µM), 0.712; in assay [1] (2.53 µM), 0.868; in assay [5] (first compound 0.08 µM) it was 0.973; in assay [5] (first compound 0.253 µM) it was 0.919. The relative viability in assay [5] (first compound 0.8 µM) worked out at 0.674; in assay [5] (first compound 2.53 µM), 0.431; in assay [2] (first compound 0.08 µM) it was 0.796; in assay [2] (first compound 0.253 µM) it was 0.65; in assay [2] (first compound 0.8 µM), 0.593; in assay [2] (first compound 2.53 µM), 0.616. Also, the relative viability in assay [4] (first compound 0.08 µM) came to 0.538; in assay [4] (first compound 0.253 µM), 0.482; in assay [4] (first compound 0.8 µM) it was 0.438; in assay [4] (first compound 2.53 µM), 0.62.

Take IA-LM: the relative viability in assay [1] (0.08 µM) came to 1.2; in assay [1] (0.253 µM) it was 1.11; in assay [1] (0.8 µM), 1.06; in assay [1] (2.53 µM) it was 1.21; in assay [5] (first compound 0.08 µM), 1.09; in assay [5] (first compound 0.8 µM), 0.855. For the same cell line, the relative viability was determined as 1.02 in assay [5] (first compound 2.53 µM); 0.962 in assay [3] (first compound 0.08 µM); 1.11 in assay [3] (first compound 0.253 µM); 1.1 in assay [3] (first compound 0.8 µM); 1.04 in assay [3] (first compound 2.53 µM).

Regarding NCI-H441, the relative viability in assay [1] (0.08 µM) is 1.26; in assay [1] (0.253 µM), 0.955; in assay [1] (0.8 µM), 1.02; in assay [1] (2.53 µM), 0.981; in assay [2] (first compound 0.08 µM), 1.25; in assay [2] (first compound 0.253 µM), 0.862. Further, the relative viability was 1.16 in assay [2] (first compound 0.8 µM); 1.35 in assay [2] (first compound 2.53 µM); 0.879 in assay [3] (first compound 0.08 µM); 0.772 in assay [3] (first compound 0.253 µM); 0.885 in assay [3] (first compound 0.8 µM); 0.674 in assay [3] (first compound 2.53 µM). Also, the relative viability in assay [4] (first compound 0.08 µM) was 0.563; in assay [4] (first compound 0.253 µM) it was 0.536; in assay [4] (first compound 0.8 µM) it was 0.508; in assay [4] (first compound 2.53 µM) it was 0.407.

Turning to NCI-H1563, the relative viability in assay [1] (0.08 µM) is 1.06; in assay [1] (0.253 µM) it was 0.958; in assay [1] (0.8 µM), 1.03; in assay [1] (2.53 µM), 1.12; in assay [5] (first compound 0.08 µM), 1.12; in assay [5] (first compound 0.253 µM), 0.872. Moreover, the relative viability in assay [5] (first compound 0.8 µM) was 0.854; in assay [5] (first compound 2.53 µM) it was 1.27.
